“And” between values parts separate entries of the source, which are not always exact repeats. Equal values may be shown once. Inconclusive results and toxic doses are left out. Rule for the calls: active = survival T/C of 150% or more; inactive = T/C below 125% in these data.
Tested on: CD2F1 mice, L1210 leukemia ip, survival T/C
Assay: NCI In Vivo Anticancer Drug Screen. Data for tumor model L1210 Leukemia (intraperitoneal) in CD2F1 (CDF1) mice
Conditions: higher = longer survival
In short: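 Mice carrying a transplanted tumor received test compound or vehicle alone. The value is the measurement in the treated group divided by that in the vehicle-treated control group.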

[1] = endpoint: mean survival time, dose: 100.0 mg/kg/injection, schedule: Q04DX002 (ip), vehicle: saline with Tween-80
[2] = endpoint: mean survival time, dose: 200.0 mg/kg/injection, schedule: Q04DX002 (ip), vehicle: saline with Tween-80
[3] = endpoint: mean survival time, dose: 50.0 mg/kg/injection, schedule: Q01DX009 (ip), vehicle: Klucel (hydroxypropylcellulose) (HPC)
[4] = endpoint: mean survival time, dose: 100.0 mg/kg/injection, schedule: Q01DX009 (ip), vehicle: Klucel (hydroxypropylcellulose) (HPC)
[5] = endpoint: mean survival time, dose: 200.0 mg/kg/injection, schedule: Q01DX009 (ip), vehicle: Klucel (hydroxypropylcellulose) (HPC)
[6] = endpoint: mean survival time, dose: 400.0 mg/kg/injection, schedule: Q01DX009 (ip), vehicle: Klucel (hydroxypropylcellulose) (HPC)
[7] = endpoint: mean survival time, dose: 12.5 mg/kg/injection, schedule: Q01DX005 (ip), vehicle: other
[8] = endpoint: mean survival time, dose: 25.0 mg/kg/injection, schedule: Q01DX005 (ip), vehicle: other
[9] = endpoint: mean survival time, dose: 50.0 mg/kg/injection, schedule: Q01DX005 (ip), vehicle: other
[10] = endpoint: mean survival time, dose: 100.0 mg/kg/injection, schedule: Q01DX005 (ip), vehicle: other
[11] = endpoint: mean survival time, dose: 100.0 mg/kg/injection, schedule: Q01DX009 (ip), vehicle: saline with Tween-80
[12] = endpoint: mean survival time, dose: 200.0 mg/kg/injection, schedule: Q01DX009 (ip), vehicle: saline with Tween-80
[13] = endpoint: mean survival time, dose: 400.0 mg/kg/injection, schedule: Q01DX009 (ip), vehicle: saline with Tween-80

Measured: T/C

CN1C2C=C(c3ccccc3)C(Br)C1CC2 (configuration not stated)
inactive: endpoint: mean survival time, dose: 20.0 mg/kg/injection, schedule: Q01DX009 (ip), vehicle: saline 103 % of control | endpoint: mean survival time, dose: 40.0 mg/kg/injection, schedule: Q01DX009 (ip), vehicle: saline 112 % of control | endpoint: mean survival time, dose: 80.0 mg/kg/injection, schedule: Q01DX009 (ip), vehicle: saline 110 % of control

CN(C)S(=O)(=O)c1ccccc1C(=O)O
inactive: endpoint: mean survival time, dose: 100.0 mg/kg/injection, schedule: Q04DX003 (ip), vehicle: saline sonified 100 % of control | endpoint: mean survival time, dose: 200.0 mg/kg/injection, schedule: Q04DX003 (ip), vehicle: saline sonified 100 % of control | endpoint: mean survival time, dose: 400.0 mg/kg/injection, schedule: Q04DX003 (ip), vehicle: saline sonified 93 % of control

C[C@]12CCC(=O)C=C1CC[C@H]1[C@@H]3CC[C@](O)(C(=O)CF)[C@@]3(C)C[C@H](O)[C@@]12F
inactive: endpoint: mean survival time, dose: 50.0 mg/kg/injection, schedule: Q01DX001 (sc), vehicle: saline sonified 103 % of control | endpoint: mean survival time, dose: 50.0 mg/kg/injection, schedule: Q04DX003 (sc), vehicle: Klucel (hydroxypropylcellulose) (HPC) 104 % of control | endpoint: mean survival time, dose: 100.0 mg/kg/injection, schedule: Q01DX001 (sc), vehicle: saline sonified 101 % of control | endpoint: mean survival time, dose: 100.0 mg/kg/injection, schedule: Q04DX003 (sc), vehicle: Klucel (hydroxypropylcellulose) (HPC) 102 % of control | endpoint: mean survival time, dose: 200.0 mg/kg/injection, schedule: Q01DX001 (sc), vehicle: saline sonified 103 % of control | endpoint: mean survival time, dose: 200.0 mg/kg/injection, schedule: Q04DX003 (sc), vehicle: Klucel (hydroxypropylcellulose) (HPC) 104 % of control

O=C(c1ccccc1)C1(Br)CCC1
inactive: endpoint: mean survival time, dose: 100.0 mg/kg/injection, schedule: Q04DX003 (ip), vehicle: saline with Tween-80 95 % of control | endpoint: mean survival time, dose: 200.0 mg/kg/injection, schedule: Q04DX003 (ip), vehicle: saline with Tween-80 97 % of control | endpoint: mean survival time, dose: 400.0 mg/kg/injection, schedule: Q04DX003 (ip), vehicle: saline with Tween-80 100 % of control

Cn1c(=O)c2c(ncn2C)n(C)c1=O
inactive: endpoint: mean survival time, dose: 128.0 mg/kg/injection, schedule: Q11HX001 (sc), vehicle: water 94 % of control and 103 % of control | endpoint: mean survival time, dose: 160.0 mg/kg/injection, schedule: Q11HX001 (sc), vehicle: water 95 % of control and 98 % of control | endpoint: mean survival time, dose: 200.0 mg/kg/injection, schedule: Q11HX001 (sc), vehicle: water 96 % of control and 98 % of control | endpoint: mean survival time, dose: 250.0 mg/kg/injection, schedule: Q11HX001 (sc), vehicle: water 96 % of control and 98 % of control | endpoint: median survival time, dose: 150.0 mg/kg/injection, schedule: Q01DX001 (ip), vehicle: water 103 % of control | endpoint: median survival time, dose: 150.0 mg/kg/injection, schedule: Q01DX001 (sc), vehicle: water 102 % of control and 109 % of control | endpoint: median survival time, dose: 200.0 mg/kg/injection, schedule: Q01DX001 (ip), vehicle: water 104 % of control | endpoint: median survival time, dose: 200.0 mg/kg/injection, schedule: Q01DX001 (sc), vehicle: water 104 % of control and 108 % of control | endpoint: median survival time, dose: 250.0 mg/kg/injection, schedule: Q01DX001 (sc), vehicle: water 95 % of control and 107 % of control

CC(C)OC(=O)Nc1ccccn1
inactive: [1] 100 % of control | [2] 100 % of control | endpoint: mean survival time, dose: 400.0 mg/kg/injection, schedule: Q04DX002 (ip), vehicle: saline with Tween-80 104 % of control

COC(=O)C(CSCSCc1ccccc1)NC(=O)C(CSCc1ccccc1)NC(=O)CCNC(=O)OCc1ccccc1 (configuration not stated)
inactive: endpoint: mean survival time, dose: 25.0 mg/kg/injection, schedule: Q01DX009 (ip), vehicle: Klucel (hydroxypropylcellulose) (HPC) 96 % of control | [3] 93 % of control | [4] 88 % of control | [5] 93 % of control | [6] 90 % of control

CC(C)(C)C(=O)CC(=O)C(C)(C)C.CC(C)(C)C(=O)CC(=O)C(C)(C)C.[Cu]
inactive: endpoint: mean survival time, dose: 9.5 mg/kg/injection, schedule: Q01DX009 (ip), vehicle: saline with Tween-80 98 % of control | endpoint: mean survival time, dose: 9.5 mg/kg/injection, schedule: Q04DX003 (ip), vehicle: saline with Tween-80 90 % of control | endpoint: mean survival time, dose: 19.0 mg/kg/injection, schedule: Q01DX009 (ip), vehicle: saline with Tween-80 102 % of control | endpoint: mean survival time, dose: 19.0 mg/kg/injection, schedule: Q04DX003 (ip), vehicle: saline with Tween-80 90 % of control | endpoint: mean survival time, dose: 38.0 mg/kg/injection, schedule: Q04DX003 (ip), vehicle: saline with Tween-80 91 % of control

Nc1ncnc2c1nnn2Cc1ccco1
inactive: [7] 96 % of control | [8] 89 % of control | [9] 89 % of control | [10] 93 % of control | endpoint: mean survival time, dose: 200.0 mg/kg/injection, schedule: Q01DX005 (ip), vehicle: other 96 % of control

O=C(O)C1OC1c1ccccc1 (configuration not stated)
inactive: [11] 107 % of control | endpoint: mean survival time, dose: 100.0 mg/kg/injection, schedule: Q04DX003 (ip), vehicle: saline 91 % of control | [12] 98 % of control | endpoint: mean survival time, dose: 200.0 mg/kg/injection, schedule: Q04DX003 (ip), vehicle: saline 100 % of control | [13] 101 % of control | endpoint: mean survival time, dose: 400.0 mg/kg/injection, schedule: Q04DX003 (ip), vehicle: saline 97 % of control

c1ccc2c(c1)-c1ccccc1C1NC21 (configuration not stated)
inactive: endpoint: median survival time, dose: 6.25 mg/kg/injection, schedule: Q01DX009 (ip), vehicle: saline with Tween-80 112 % of control | endpoint: median survival time, dose: 12.5 mg/kg/injection, schedule: Q01DX009 (ip), vehicle: saline with Tween-80 108 % of control | endpoint: median survival time, dose: 25.0 mg/kg/injection, schedule: Q01DX009 (ip), vehicle: saline with Tween-80 120 % of control

CCN(CC)c1ccc2cc(-c3nc4ccccc4n3C)c(=O)oc2c1
inactive: endpoint: mean survival time, dose: 3.13 mg/kg/injection, schedule: Q01DX009 (ip), vehicle: Klucel (hydroxypropylcellulose) (HPC) 90 % of control | endpoint: mean survival time, dose: 6.25 mg/kg/injection, schedule: Q01DX009 (ip), vehicle: Klucel (hydroxypropylcellulose) (HPC) 91 % of control and 93 % of control and 96 % of control | endpoint: mean survival time, dose: 12.5 mg/kg/injection, schedule: Q01DX009 (ip), vehicle: Klucel (hydroxypropylcellulose) (HPC) 93 % of control and 96 % of control and 103 % of control | [3] 120 % of control and 121 % of control and 103 % of control

COC(=O)c1c(CC#N)ncn1C1CC(OC(=O)c2ccc(C)cc2)C(COC(=O)c2ccc(C)cc2)O1 (configuration not stated)
inactive: endpoint: median survival time, dose: 9.88 mg/kg/injection, schedule: Q01DX005 (ip), vehicle: water 101 % of control | endpoint: median survival time, dose: 19.75 mg/kg/injection, schedule: Q01DX005 (ip), vehicle: water 96 % of control | endpoint: median survival time, dose: 39.5 mg/kg/injection, schedule: Q01DX005 (ip), vehicle: water 96 % of control | endpoint: median survival time, dose: 79.0 mg/kg/injection, schedule: Q01DX005 (ip), vehicle: water 97 % of control | endpoint: median survival time, dose: 158.0 mg/kg/injection, schedule: Q01DX005 (ip), vehicle: water 100 % of control

CN(C)c1ccc2nc3ccc(=O)cc-3sc2c1
inactive: [4] 98 % of control | [5] 101 % of control | [6] 103 % of control

Cc1c(N)ccc(O)c1C
inactive: endpoint: mean survival time, dose: 12.5 mg/kg/injection, schedule: Q01DX009 (ip), vehicle: saline with Tween-80 98 % of control | endpoint: mean survival time, dose: 25.0 mg/kg/injection, schedule: Q01DX009 (ip), vehicle: saline with Tween-80 97 % of control | endpoint: mean survival time, dose: 50.0 mg/kg/injection, schedule: Q01DX009 (ip), vehicle: saline with Tween-80 92 % of control

NC(=O)c1ccccc1C(=O)O
inactive: endpoint: mean survival time, dose: 100.0 mg/kg/injection, schedule: Q01DX001 (ip), vehicle: saline 105 % of control | endpoint: mean survival time, dose: 200.0 mg/kg/injection, schedule: Q01DX001 (ip), vehicle: saline 102 % of control | endpoint: mean survival time, dose: 400.0 mg/kg/injection, schedule: Q01DX001 (ip), vehicle: saline 94 % of control

CCCCCCC[CH2][Sn]1([CH2]CCCCCCC)[O]C2C(CO)OC(n3ccc(N)nc3=O)C2[O]1 (configuration not stated)
inactive: [7] 103 % of control | [8] 97 % of control | [9] 100 % of control | [10] 109 % of control

c1ccc(C2=C(c3ccccc3)OCCO2)cc1
inactive: endpoint: mean survival time, dose: 100.0 mg/kg/injection, schedule: Q01DX001 (ip), vehicle: saline with Tween-80 110 % of control | endpoint: mean survival time, dose: 200.0 mg/kg/injection, schedule: Q01DX001 (ip), vehicle: saline with Tween-80 89 % of control | endpoint: mean survival time, dose: 400.0 mg/kg/injection, schedule: Q01DX001 (ip), vehicle: saline with Tween-80 92 % of control

O=C([O][Sb]([O]C(=O)C(F)(F)F)([c]1ccccc1)([c]1ccccc1)[c]1ccccc1)C(F)(F)F
inactive: endpoint: mean survival time, dose: 50.0 mg/kg/injection, schedule: Q04DX002 (ip), vehicle: saline with Tween-80 93 % of control | [1] 93 % of control | [2] 97 % of control

CCc1ccc(NS(=O)(=O)c2ccccc2)cc1
inactive: [11] 90 % of control | [12] 106 % of control | [13] 95 % of control

From PubChem BioAssay AID256 (DTP/NCI, 2004)
